Data published in paper PMC10502144, “Anti-methicillin-resistant Staphylococcus aureus activity and safety evaluation of 14-O-[(5-ethoxycarbonyl-4,6-dimethylpyrimidine-2-yl) thioacetyl] mutilin (EDT)” (Scientific Reports, 2023).
pIC50: −log10 of the molar value. Counter-ions that a name gives are not always drawn.

Key:
[1] = tested on: Salmonella Typhimurium TA98; assay: Ames test, TA98
Method: (§1) Before the test, Salmonella Typhimurium (S. Typhimurium) TA97a, TA98, TA100, TA102, TA1535 and Escherichia coli WP2uvrA pKM101 (pKM101) were first checked for their genetic integrity, including biotin dependence, rfa marker (crystal violet), biotin, histidine dependence and presence of the plasmid pKM101 (ampicillin resistance) or pAQ1 (tetracycline resistance). […] The maximum concentration of EDT was also screened using a preliminary experiment.
(§2) DMSO (0.1 mL) was directly incorporated into 1.9 mL melted top agar as the vehicle control. […] Each strain (0.1 mL, 6–7 log10 CFU/mL) was added into 2 mL of top agar in which comprised 0.5 mL S9 (10%), serial concentrations of EDT (2000, 400, 80, 16 and 3.2 μg/plate), DMSO or control chemicals for testing with the S9. For testing without S9, 0.5 mL phosphate buffer saline (PBS, pH 7.4) replaced the S9 mix. Then, the obtained top agar was melted, poured onto the surface of […] and swirled to distribute the top agar to all surfaces of medium, followed by incubation at 37 °C for 48 h. The resultant colonies were counted manually as the number of revertant colonies per plate. The experiments were performed in triplicate and the results were expressed as the average ± SD.

MRSA-337371 = assay: Post-antibiotic effect (PAE) test, viable counting; type: cell-based, methicillin-resistant Staphylococcus aureus; conditions: 1 h exposure; for PAE values, concentration dependence: 1×, 2×, 4× and 8× MIC
Method: The PAE of EDT against MRSA-337371 was determined using a standard viable counting method. We selected 1 × , 2 × , 4 × and 8 × MICs of EDT and tiamulin (0.0313 and 0.5 μg/mL, respectively), to conduct PAE test on MRSA strains. The strains (1 × 10^5 CFU/mL) were placed in MHB broth test tubes containing the above four concentrations of EDT and tiamulin, respectively, and cultured in a shaking bed at 37 °C for 1 h, followed by centrifuging for 10 min at 4000 r/min. The supernatants were discarded and the precipitations were dissolved with 2 mL normal saline to centrifuge. The same procedure was repeated three times. The final bacterial precipitates were taken and cultured in MHB broth with the initial concentration of 5.5 Log CFU/mL at 37 °C in a shaking bed. Samples were then taken at 0, 1, 2, 3, 4, 5, 6, 8, 12, 18 and 24 h to dilute 10–100,000 times and the 10 μL dilutions were evenly smear on MHA plate medium to culture at 37 °C for 48 h. Finally, the average numbers of colonies on the plates were obtained and the PAE values were calculated as hour using equation PAE = T − C, in which T was the time required for the increase of 1 log10 CFU/mL after the removal of drugs and C was the time required for the number of MRSA in the control tube to increase by 1 log10 CFU/mL. Experiments were performed in triplicate.

[2] = tested on: Escherichia coli WP2uvrA pKM101; assay: Ames test, pKM101
Method: as §1, §2

[3] = Microsomal stability assay, mouse; type: in vitro ADME; conditions: mouse liver microsomes
Method: (§3) Mouse and human liver microsomes were thawed slowly on ice. A total of 5 mg/mL of microsomes, 2 μL of a 100 μM solution of EDT and 183 μL of 100 mM phosphate buffer were incubated 5 min at 37 °C in a water bath. Reactions were initiated using 10 μL of 20 mM NADPH. Samples were incubated in three replicates at 37 °C under gentle agitation at 150 rpm. At 0, 5, 15, 30, and 60 min, reactions were terminated by the addition of 180 μL of acetonitrile. After centrifugation (4000 rpm, 10 min), samples were then analyzed by liquid chromatography/tandem mass spectrometry (LC–MS/MS). Peak areas of the respective time point of the compound were normalized to the peak area at time point 0 min. Then half-life was calculated using linear regression from log percentage (t1/2 = − 0.693/k).

[4] = tested on: Salmonella Typhimurium TA102; assay: Ames test, TA102
Method: as §1, §2

[5] = Cytotoxicity assay (CCK-8), HepG2; type: cell-based; conditions: human, HepG2 cells; for viability at 6 h, 100 µM: HepG2, 100 μM; for viability at 6 h, 100 µM / viability at 6 h, 200 µM: read-out: cell viability; for viability at 6 h, 200 µM: HepG2, 200 μM
Method: Cytotoxicity of EDT and tiamulin was studied against human hepatocellular carcinoma cells (HepG2) and human embryonic kidney 293T (HEK293T) cells following a protocol as published in our earlier reports[41],[42]. Cells were counted and inoculated into 96-well plates with approximately10^5 cells density for incubating 24 h at 37 °C. […] The same procedure was repeated three times. The percentages of cell viability were calculated by the formula: Cell viability (%) = [Asample ‒ Anegative]/[Apositve ‒ Anegative] × 100%.

[6] = Microsomal stability assay, human; type: in vitro ADME; conditions: human liver microsomes
Method: as §3

CYP3A4 = conditions: cited from earlier work

**Q.** For `C=CC1(C)CC(OC(=O)CSc2nc(C)c(C(=O)OCC)c(C)n2)C2(C)C(C)CCC3(CCC(=O)C32)C(C)C1O` (centres unmarked) [EDT, 14-O-[(5-ethoxycarbonyl-4,6-dimethylpyrimidine-2-yl)thioacetyl] mutilin], which “number of revertant colonies per plate” value ([1]; TA98, 3.2 μg/plate, +S9) is on record?
**A.** 22.00 ± 2.00

**Q.** And the “number of revertant colonies per plate” value ([1]; TA98, 3.2 μg/plate, −S9)?
**A.** 21.67 ± 1.67

**Q.** What about the “number of revertant colonies per plate” value ([1]; TA98, 16 μg/plate, +S9) of the same compound?
**A.** 24.00 ± 4.00

**Q.** What about the “number of revertant colonies per plate” value ([1]; TA98, 16 μg/plate, −S9) of the same compound?
**A.** 23.33 ± 2.67

**Q.** What about the “number of revertant colonies per plate” value ([1]; TA98, 80 μg/plate, +S9) of the same compound?
**A.** 19.00 ± 3.00

**Q.** What about the “number of revertant colonies per plate” value ([1]; TA98, 80 μg/plate, −S9) of the same compound?
**A.** 23.33 ± 2.67

**Q.** What about the “number of revertant colonies per plate” value ([1]; TA98, 400 μg/plate, +S9) of the same compound?
**A.** 25.00 ± 4.00

**Q.** And the “number of revertant colonies per plate” value ([1]; TA98, 400 μg/plate, −S9)?
**A.** 26.67 ± 3.33

**Q.** What about the “number of revertant colonies per plate” value ([1]; TA98, 2000 μg/plate, +S9) of the same compound?
**A.** 29.67 ± 2.33

**Q.** And the “number of revertant colonies per plate” value ([1]; TA98, 2000 μg/plate, −S9)?
**A.** 32.33 ± 3.67

**Q.** And the “PAE values, concentration dependence” value (MRSA-337371)?
**A.** increased PAE values in a concentration-dependent manner

**Q.** And the “PAE values compared with tiamulin” value (MRSA-337371; at four tested concentrations (1×, 2×, 4×, 8× MIC))?
**A.** extremely significantly higher than that of tiamulin

**Q.** And the “number of revertant colonies per plate” value ([2]; pKM101, 3.2 μg/plate, +S9)?
**A.** 50.33 ± 2.67

**Q.** What about the “number of revertant colonies per plate” value ([2]; pKM101, 3.2 μg/plate, −S9) of the same compound?
**A.** 42.00 ± 3.00

**Q.** And the “number of revertant colonies per plate” value ([2]; pKM101, 16 μg/plate, +S9)?
**A.** 54.00 ± 4.00

**Q.** What about the “number of revertant colonies per plate” value ([2]; pKM101, 16 μg/plate, −S9) of the same compound?
**A.** 46.00 ± 5.00

**Q.** What about the “number of revertant colonies per plate” value ([2]; pKM101, 80 μg/plate, +S9) of the same compound?
**A.** 44.00 ± 4.00

**Q.** What about the “number of revertant colonies per plate” value ([2]; pKM101, 80 μg/plate, −S9) of the same compound?
**A.** 41.33 ± 3.67

**Q.** What about the “number of revertant colonies per plate” value ([2]; pKM101, 400 μg/plate, +S9) of the same compound?
**A.** 53.00 ± 5.00

**Q.** And the “number of revertant colonies per plate” value ([2]; pKM101, 400 μg/plate, −S9)?
**A.** 51.33 ± 3.67

**Q.** And the “number of revertant colonies per plate” value ([2]; pKM101, 2000 μg/plate, +S9)?
**A.** 50.33 ± 3.67

**Q.** And the “number of revertant colonies per plate” value ([2]; pKM101, 2000 μg/plate, −S9)?
**A.** 47.00 ± 4.00

**Q.** What about the half-life at 1 μM [3] of the same compound?
**A.** 30.1 min

**Q.** What about the microsomal CLint at 1 μM [3] of the same compound?
**A.** 46 µL/min/mg

**Q.** What about the “number of revertant colonies per plate” value ([4]; TA102, 3.2 μg/plate, +S9) of the same compound?
**A.** 214.33 ± 14.67

**Q.** What about the “number of revertant colonies per plate” value ([4]; TA102, 3.2 μg/plate, −S9) of the same compound?
**A.** 208.00 ± 15.00

**Q.** What about the “number of revertant colonies per plate” value ([4]; TA102, 16 μg/plate, +S9) of the same compound?
**A.** 218.00 ± 9.00

**Q.** What about the “number of revertant colonies per plate” value ([4]; TA102, 16 μg/plate, −S9) of the same compound?
**A.** 205.00 ± 11.00

**Q.** And the “number of revertant colonies per plate” value ([4]; TA102, 80 μg/plate, +S9)?
**A.** 223.67 ± 17.33

**Q.** What about the “number of revertant colonies per plate” value ([4]; TA102, 80 μg/plate, −S9) of the same compound?
**A.** 209.33 ± 13.67

**Q.** And the “number of revertant colonies per plate” value ([4]; TA102, 400 μg/plate, +S9)?
**A.** 219.67 ± 18.33

**Q.** And the “number of revertant colonies per plate” value ([4]; TA102, 400 μg/plate, −S9)?
**A.** 211.00 ± 14.00

**Q.** And the “number of revertant colonies per plate” value ([4]; TA102, 2000 μg/plate, +S9)?
**A.** 236.33 ± 19.67

**Q.** What about the “number of revertant colonies per plate” value ([4]; TA102, 2000 μg/plate, −S9) of the same compound?
**A.** 228.00 ± 16.00

**Q.** And the viability at 6 h, 100 µM [5]?
**A.** 99.7%

**Q.** And the CC50 at 6 h ([5]; HepG2, 200 μM converted to μg/mL)?
**A.** > 115 µg/mL

**Q.** And the viability at 6 h, 200 µM [5]?
**A.** 77.5%

**Q.** And the CC50 at 6 h ([5]; HepG2, deduced from Fig. 5)?
**A.** > 200 µM

**Q.** What about the half-life at 1 μM [6] of the same compound?
**A.** 43.6 min

**Q.** What about the microsomal CLint at 1 μM [6] of the same compound?
**A.** 31.8 µL/min/mg

**Q.** Which “PAE values, concentration dependence” value (MRSA-337371) does the source give for `C=C[C@]1(C)C[C@@H](OC(=O)CSCCN(CC)CC)[C@]2(C)[C@H](C)CC[C@]3(CCC(=O)[C@H]32)[C@@H](C)[C@@H]1O` [tiamulin, Tiamulin fumarate, reference compound] here?
**A.** increased PAE values in a concentration-dependent manner

**Q.** And the pIC50 (CYP3A4)?
**A.** 5.80

**Q.** What about the viability at 6 h, 100 µM [5] of the same compound?
**A.** 60.8%

**Q.** And the viability at 6 h, 200 µM [5]?
**A.** 55.6%
